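In this assay, cells in 96-well plates receive the compound at five concentrations for 48 hours. Endpoints are linearly interpolated between the surrounding concentrations. GI50 is the concentration that inhibits growth by half.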 Activity calls are given as the source filed them. Cut-off read from the data, not from the text of the source: active = GI50 up to about 1.1 µM and inactive = higher.
How the values were obtained:
Test in all cases: growth of human tumour cells (NCI), 48 h
MDA-N = system: MDA-N
OVCAR-8 = system: OVCAR-8
OVCAR-4 = system: OVCAR-4
KM12 = system: KM12
DU-145 = system: DU-145
SW-620 = system: SW-620
HT-29 = system: HT-29
NCI-H460 = system: NCI-H460
Hs-578T = system: Hs-578T
SNB-19 = system: SNB-19
HOP-62 = system: HOP-62
SK-MEL-5 = system: SK-MEL-5
HCT-15 = system: HCT-15
Malme-3M = system: Malme-3M
UACC-257 = system: UACC-257
EKVX = system: EKVX
786-0 = system: 786-0
MOLT-4 = system: MOLT-4
HL-60 = system: HL-60

| Compound | GI50 (MDA-N) | GI50 (OVCAR-8) | GI50 (OVCAR-4) | GI50 (KM12) | GI50 (DU-145) | GI50 (SW-620) | GI50 (HT-29) | GI50 (NCI-H460) | GI50 (Hs-578T) | GI50 (SNB-19) | GI50 (HOP-62) | GI50 (SK-MEL-5) | GI50 (HCT-15) [µM] | GI50 (Malme-3M) | GI50 (UACC-257) | GI50 (EKVX) | GI50 (786-0) | GI50 (MOLT-4) | GI50 (HL-60) |
| --- | --- | --- | --- | --- | --- | --- | --- | --- | --- | --- | --- | --- | --- | --- | --- | --- | --- | --- | --- |
| NS(=O)(=O)c1ccc(/N=N/c2nc3nc(O)nc(O)c3[nH]2)cc1 | > 100 µM (inactive) | > 100 µM (inactive) | > 100 µM (inactive) | > 100 µM (inactive) | > 100 µM (inactive) | > 100 µM (inactive) | > 100 µM (inactive) | > 100 µM (inactive) | > 100 µM (inactive) | > 100 µM (inactive) | > 100 µM (inactive) | > 100 µM (inactive) | > 100 | > 100 µM (inactive) | > 100 µM (inactive) | > 100 µM (inactive) | > 100 µM (inactive) |  |  |
| COc1ccc(O[C@H](CO)C[C@@H]2COC(C)(C)O2)cc1 | > 100 µM (inactive) | > 100 µM (inactive) | > 100 µM (inactive) | > 100 µM (inactive) | > 100 µM (inactive) | > 100 µM (inactive) | > 100 µM (inactive) | > 100 µM (inactive) |  | > 100 µM (inactive) | > 100 µM (inactive) | > 100 µM (inactive) | > 100 | > 100 µM (inactive) | > 100 µM (inactive) | > 100 µM (inactive) | > 100 µM (inactive) | > 100 µM (inactive) |  |
| Cc1[nH]c2c(c1C)S(=O)(=O)c1cc3ccccc3nc1N2 | 15.7 µM (inactive) | 12.3 µM (inactive) | 14.3 µM (inactive) | 27.9 µM (inactive) | 24.9 µM (inactive) | 40.4 µM (inactive) | 15 µM (inactive) | 18.7 µM (inactive) |  | 26.2 µM (inactive) | 18.2 µM (inactive) | 14.6 µM (inactive) | 22.1 | 16.6 µM (inactive) | 35.9 µM (inactive) | 36.7 µM (inactive) | 16.6 µM (inactive) | > 100 µM (inactive) |  |
| CN(C)CCNC(=O)Cn1ccc(=O)c2cc([N+](=O)[O-])ccc21 | > 100 µM (inactive) |  |  | > 100 µM (inactive) | > 100 µM (inactive) | > 100 µM (inactive) | > 100 µM (inactive) | > 100 µM (inactive) | > 100 µM (inactive) | > 100 µM (inactive) | > 100 µM (inactive) | > 100 µM (inactive) | > 100 | > 100 µM (inactive) | > 100 µM (inactive) | > 100 µM (inactive) | > 100 µM (inactive) | > 100 µM (inactive) | > 100 µM (inactive) |
| Clc1ccc(-c2nn3c(CCCCCCCCc4nnc5sc(-c6ccc(Cl)cc6)nn45)nnc3s2)cc1 | 18.2 µM (inactive) | 18.7 µM (inactive) | 8.85 µM (inactive) | 11.9 µM (inactive) | 11.7 µM (inactive) | 29.2 µM (inactive) | 12.4 µM (inactive) | 26.9 µM (inactive) | 27.2 µM (inactive) | 20.6 µM (inactive) | 26.4 µM (inactive) | 13.8 µM (inactive) | 26.3 | 45.2 µM (inactive) | 12.3 µM (inactive) | 20 µM (inactive) | 20.1 µM (inactive) | 7.69 µM (inactive) |  |
| c1ccc(C[P+]2(c3ccccc3)c3ccccc3-c3ccccc32)cc1 | > 100 µM (inactive) | > 100 µM (inactive) |  | > 100 µM (inactive) | > 100 µM (inactive) | > 100 µM (inactive) |  |  | > 100 µM (inactive) | > 100 µM (inactive) | > 100 µM (inactive) | > 100 µM (inactive) | > 100 |  | > 100 µM (inactive) | > 100 µM (inactive) | > 100 µM (inactive) | > 100 µM (inactive) | > 100 µM (inactive) |
| O=C(Nc1sccc1S(=O)(=O)c1ccc(Cl)cc1)c1ccc(Cl)cc1Cl |  | > 100 µM (inactive) | > 93.8 µM (inactive) | 82.2 µM (inactive) | > 100 µM (inactive) | > 100 µM (inactive) | > 76.2 µM (inactive) | > 95.7 µM (inactive) | > 100 µM (inactive) | > 100 µM (inactive) | > 100 µM (inactive) | 47 µM (inactive) | > 100 | > 100 µM (inactive) | 23.4 µM (inactive) | > 79.4 µM (inactive) | > 100 µM (inactive) | > 85.9 µM (inactive) | > 100 µM (inactive) |
| Cc1ccc(S(=O)(=O)NC2=NS(=O)(=O)c3cc(C)c(Cl)cc3S2)cc1 |  | > 100 µM (inactive) | > 100 µM (inactive) | > 100 µM (inactive) | > 100 µM (inactive) | 71.6 µM (inactive) | > 100 µM (inactive) | > 100 µM (inactive) | > 100 µM (inactive) | 75 µM (inactive) | > 100 µM (inactive) | > 100 µM (inactive) | > 100 | 38.8 µM (inactive) | > 100 µM (inactive) | > 100 µM (inactive) | > 100 µM (inactive) | 39.1 µM (inactive) | > 100 µM (inactive) |
| CCOC(=O)[C@@H]1C2C(=C[C@H]3[C@H]1C(=O)N1CCCC[C@H]31)CCCN2C(=O)OCc1ccccc1 (some centres undefined) | 35.7 µM (inactive) | 35.5 µM (inactive) | 37.8 µM (inactive) | 36.2 µM (inactive) | 39.1 µM (inactive) | 52.2 µM (inactive) | 30.3 µM (inactive) | 23.8 µM (inactive) |  | > 100 µM (inactive) | 42.5 µM (inactive) | 31.6 µM (inactive) | 32.8 | 28.5 µM (inactive) | 37.6 µM (inactive) | 38.3 µM (inactive) | 54.5 µM (inactive) | 14.3 µM (inactive) | 20.8 µM (inactive) |
| O=C1c2ccccc2C(=O)N1CCCCCCNOCCCN1C(=O)c2ccccc2C1=O | 31.6 µM (inactive) | 38.9 µM (inactive) | 22.3 µM (inactive) | 27.1 µM (inactive) | 51.8 µM (inactive) | > 100 µM (inactive) | 36.6 µM (inactive) | 44.2 µM (inactive) | > 100 µM (inactive) | 78.3 µM (inactive) | 45.1 µM (inactive) | 15.4 µM (inactive) | 40.2 | 41.3 µM (inactive) | 31.1 µM (inactive) | 25.6 µM (inactive) | 99.1 µM (inactive) | 19.3 µM (inactive) |  |
| COc1ccc(-c2c(C#N)c(-c3ccccc3)n(NS(=O)(=O)c3ccccc3)c(=O)c2C#N)cc1 | > 100 µM (inactive) | 97.1 µM (inactive) | > 100 µM (inactive) | > 100 µM (inactive) |  | > 100 µM (inactive) | > 100 µM (inactive) | > 100 µM (inactive) | 41.6 µM (inactive) | 92.7 µM (inactive) | 95.1 µM (inactive) | 55.1 µM (inactive) | > 100 | 41.6 µM (inactive) | > 100 µM (inactive) | > 100 µM (inactive) | > 100 µM (inactive) | 27.6 µM (inactive) | 60.3 µM (inactive) |
| CC1=C(SCc2ccccc2)C(=O)c2ccccc2C1=O |  | 13.4 µM (inactive) | 13.9 µM (inactive) | 18.5 µM (inactive) | 19.8 µM (inactive) | 19.9 µM (inactive) | 30.3 µM (inactive) | 21.8 µM (inactive) |  |  | 17.3 µM (inactive) | 14.4 µM (inactive) | 18.5 | 15.5 µM (inactive) | 16.1 µM (inactive) | 19.1 µM (inactive) | 13.2 µM (inactive) | 1.68 µM (inactive) | 3.73 µM (inactive) |
| C=C1[C@@H](OC(C)=O)/C=C/C2C3C(=O)[C@@](C)(OC(C)=O)[C@H]([C@H](OC(C)=O)[C@]4(O)[C@@H](C)C(=O)O[C@H]4[C@H]1Cl)[C@@]23C (some centres undefined) | > 100 µM (inactive) | > 100 µM (inactive) | > 100 µM (inactive) | > 100 µM (inactive) | > 100 µM (inactive) | > 100 µM (inactive) | > 100 µM (inactive) | > 100 µM (inactive) | > 100 µM (inactive) | > 100 µM (inactive) | > 100 µM (inactive) | > 100 µM (inactive) | > 100 | > 100 µM (inactive) | > 100 µM (inactive) | > 100 µM (inactive) | > 100 µM (inactive) | > 100 µM (inactive) |  |
| NC(=O)C(=Cn1c(=S)[nH]c2ccc([N+](=O)[O-])cc21)C(N)=O | > 100 µM (inactive) | > 100 µM (inactive) | > 100 µM (inactive) | > 100 µM (inactive) | > 100 µM (inactive) | > 100 µM (inactive) | > 100 µM (inactive) | > 100 µM (inactive) |  | > 100 µM (inactive) | > 100 µM (inactive) | > 100 µM (inactive) | > 100 |  | > 100 µM (inactive) | 19.7 µM (inactive) | > 100 µM (inactive) | > 100 µM (inactive) | > 100 µM (inactive) |
| Nc1sc2c(c1C(=O)c1ccc(Cl)c(Cl)c1)CCCC2 |  | 67 µM (inactive) | 28.7 µM (inactive) | 22.3 µM (inactive) | > 100 µM (inactive) | 35.7 µM (inactive) | 36.4 µM (inactive) | 40.1 µM (inactive) | 70.8 µM (inactive) | 64.1 µM (inactive) | 83.6 µM (inactive) |  | 50.6 | 59.4 µM (inactive) | 54.8 µM (inactive) | 29.1 µM (inactive) | 68.7 µM (inactive) | 21.7 µM (inactive) | 22.6 µM (inactive) |
| CN1Cc2c(nc(-c3ccc(Br)cc3)c[n+]2[O-])N(C)C1 |  | > 100 µM (inactive) | > 100 µM (inactive) | > 100 µM (inactive) |  | > 100 µM (inactive) | > 100 µM (inactive) | > 100 µM (inactive) |  | > 100 µM (inactive) | > 100 µM (inactive) | > 100 µM (inactive) |  | > 100 µM (inactive) | > 100 µM (inactive) | > 100 µM (inactive) | > 100 µM (inactive) | > 100 µM (inactive) | > 100 µM (inactive) |
